Laboratory results from ChEMBL document CHEMBL1144589, “Pharmacophoric features of Pseudomonas aeruginosa deacetylase LpxC inhibitors: an electronic and structural analysis” (Bioorg Med Chem Lett, 2007).
Calls of active or inactive are those of the source. The calls are words filed in the database; no cut-off is given here.

Target: T1, UDP-3-O-acyl-N-acetylglucosamine deacetylase (Pseudomonas aeruginosa (strain ATCC 15692 / PAO1 / 1C / PRS 101 / LMG12228)) (UniProt P47205)
T1 sequence (whole entry): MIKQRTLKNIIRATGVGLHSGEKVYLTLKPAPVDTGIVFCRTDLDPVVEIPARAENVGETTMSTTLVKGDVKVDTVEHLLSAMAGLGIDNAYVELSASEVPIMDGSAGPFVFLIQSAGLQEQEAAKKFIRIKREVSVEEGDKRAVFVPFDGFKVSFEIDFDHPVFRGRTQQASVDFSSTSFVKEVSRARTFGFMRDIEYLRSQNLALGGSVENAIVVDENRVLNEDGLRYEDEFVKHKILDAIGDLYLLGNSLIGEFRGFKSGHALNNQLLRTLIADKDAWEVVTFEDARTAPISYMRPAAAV
Experiment: Inhibition at Pseudomonas aeruginosa deacetylase LpxC receptor

O=C(NO)C1COC(c2cccc(C(F)(F)F)c2)=N1 (stereo unspecified)
Activity: Active
